Experimental data taken from patent US20150182605A1, “Ultra-Low Dose Lysostaphin for Treating MRSA” (priority 2013, published 2015).

Experiments:
SA5 (ATCC 49521) = test: Effect of antibiotics and lysostaphin on growth of SA5 (% T, 96-well); assay type: cell-based, Staphylococcus aureus; conditions: for inhibition and killing of the staph by antibiotic alone: antibiotic alone at 25 or 12.5 mg/ml, 5 and 22 hours
Method: It was determined whether low levels of lysostaphin would act synergistically with Nafcillin or Oxacillin to kill an SA5 (ATCC 49521). The study was performed in a 96-well dish to allow titration of lysostaphin and antibiotics. The end point was % T. Plating of bacteria from the assay plate was not done.
Fifty μl of SA5 (ATCC 49521) was reconstituted from a frozen stock and grown overnight on a blood agar plate at 37° C. Bacteria were transferred from the blood agar plate (approximately 25% of the lawn) into 30 mls of TSB and grown for 2 hours at 37° C. on a rotating shaker set at 250 rpm. […] A 1:4 dilution of this suspension in TSB gave a % T of ˜50% in a 96 well dish.
For the assay, lysostaphin (Sigma Cat L7386; lot 063M4011V; 3387.5 units/ml stock in water) was diluted in three-fold dilutions (in TSB) from 3 units/ml (row A) to 0.0123 units/ml (row G) in 50 μl/well. The wells in row H received TSB alone. This plate was designated the assay plate. In a separate 96-well plate (i.e. the dilution plate), Nafcillin (Sigma Cat N3269; lot SLBF8230V, 50 mg/ml in water) was diluted in TSB to 25 mg/ml and a second dilution of 12.5 mg/ml was also prepared (columns 1 and 2 of the dilution plate). Oxacillin (Sigma Cat 01002; lot SLBC9948V; 50 mg/ml in water) was diluted to 25 mg/ml in TSB and a second dilution of 12.5 mg/ml was also prepared (columns 4 and 5 of the dilution plate).
Fifty μl of the antibiotic solutions were transferred to the corresponding wells of the assay plate containing the lysostaphin solution. 50 μl of TSB alone was transferred to columns 3 and 6 (i.e. no antibiotic controls) of the assay plate. The combination of antibiotics and lysostaphin yielded a volume of 100 μl. 125 μl of S. aureus 49521, diluted 1:2 in TSB was then added to all wells of the plate, except wells H1, H2, H4 and H5, which served as the blank well for determining the % T. After addition of the bacteria, and between each determination of the % T, the plate was incubated at 37° C. with gentle rotation (˜50 rpm). The % T was then determined at 2 and 15 minutes after addition of the bacteria, and again at 5 hours and 22 hours after addition of the bacteria.

SA5 = test: % T lysis assay of SA5 in 96-well configuration; assay type: cell-based, Staphylococcus aureus; conditions: 0.1 μg/ml; for change in % T / killing: neat solution of SA5, 10 minutes at 37° C. (FIG. 4)
Method: A second assay was performed in which the SA5 and lysostaphin were tested in a 96-well configuration. For this assay, 100 μl of the SA5 solution was added to wells followed by 100 μl of the lysostaphin solution. % T was obtained at TO and the plate incubated at 37° C. for 10 minutes with gentle rotation. The % T was obtained and the results compared.

[1] = system: S. aureus type 5 (ATCC 49521); test: % T (turbidity) lysis assay of S. aureus type 5 suspension in tubes; assay type: cell-based, Staphylococcus aureus; conditions: 10 minutes at 37° C.
Method: 50 μl of S. aureus type 5 (ATCC 49521) was plated onto blood agar plates and incubated overnight. The resulting bacterial lawn was transferred to 30 mls of TSB (tryptic soy broth; Remel cat 112740) and incubated at 37° C. for about 60 minutes at 225 rpm. The percent transmission (% T) of the bacterial suspension following incubation was about 7%. The % T was adjusted to 53% by addition of 100 μl of bacterial suspension to 4500 μl of TSB (in five individual tubes) and the % T was measured in each tube. An additional tube contained TSB alone. Tube #1 received no lysostaphin. Tube #2 was designated to receive 550 μl of recombinant lysostaphin, but the lysostaphin was erroneously added to Tube #3, and thus, Tube #2 was discarded. Tube #3 received 550 μl recombinant lysostaphin (from a 2,000 μg/ml stock solution) for a final concentration of about 220 μg/ml (this tube erroneously received lysostaphin dose intended for tube #2 (i.e. 500 μl of lysostaphin stock) plus the 50 μl of lysostaphin originally intended for this tube. Tube #4 received 500 μl of natural lysostaphin from S. staphylolyticus (from a 2,000 μg/ml stock solution) for a final concentration of about 200 μg/ml. Tube #5 received 50 μl of natural lysostaphin from S. staphylolyticus (from a 2,000 μg/ml stock solution) for a final concentration of about 20 μg/ml. The tubes were vortexed, incubated at 37° C. for 10 minutes at 150 rpm and the % T for each determined (see FIG. 3 which is summarized in Table 2). An increase in the % T indicates killing of bacteria. Both lysostaphins were highly likely active against this SA5.

[2] = system: anti-lysostaphin antibodies; test: Assay of mouse sera on lysostaphin-coated plates after immunization; assay type: binding; conditions: gamma-specific detection, compared with the other lysostaphin as coating antigen, regardless of the immunogen
Method: Assay of mouse sera on plates coated with lysostaphin from simulans expressed as recombinant in E coli and coated with natural lysostaphin from S. staphylolyticus. Mice received a primary immunization (subcutaneous) with 10 μg recombinant lysostaphin from E. coli (Sigma-Aldrich) (animal numbers 8603, 8604) or 10 μg of natural lysostaphin from S. staphylolyticus (Sigma-Aldrich) (animal numbers 8621-8623). Primary immunization was administered and boosted about three weeks later. No adjuvant was used for the immunizations. Serum samples were tested using gamma-specific detection (FIGS. 1 and 2). Bars represent binding seen with normal serum (first bar), serum after the first injection (second bar), and serum after the boost injection three weeks later (third and in most cases largest bar). The results on wells coated with simulans lysostaphin (FIG. 1) were stronger than the results on wells coated with staphylolyticus lysostaphin (FIG. 2), regardless of the immunogen. Mouse 8621 was poorly reactive on both coating antigens. Note that each graph is scaled to 1.500 on the y-axis for comparison purposes.

S. aureus cells [3] = test: Enzymatic activity per certificate of analysis (COA); assay type: biochemical, Staphylococcus aureus; conditions: from COAs of both products
Method: Doses may also be as international units. One international unit (IU) is about 3.1 μg and will reduce the turbidity (A620) of a suspension of S. aureus cells from 0.250 to 0.125 in 10 minutes at pH 7.5 at 37° C. in a 6.0 ml reaction mixture.

S. aureus cells [4] = conditions: from COA; cited from earlier work

In the case of `CCOc1ccc2ccccc2c1C(=O)N[C@@H]1C(=O)N2[C@@H]1SC(C)(C)[C@@H]2C(=O)O` [Nafcillin, reference compound], the “inhibition and killing of the staph by antibiotic alone” value (SA5 (ATCC 49521)) was “ineffective rapid inhibition and killing”.
For `Cc1onc(-c2ccccc2)c1C(=O)N[C@@H]1C(=O)N2[C@@H]1SC(C)(C)[C@@H]2C(=O)O` [Oxacillin, reference compound], the “inhibition and killing of the staph by antibiotic alone” value (SA5 (ATCC 49521)) was “ineffective rapid inhibition and killing”.
In the case of “lysostaphin: lysostaphin (Sigma Cat L7386; lot 063M4011V; 3387.5 units/ml stock in water); 27 kD glycylglycine endopeptidase”, the “synergy of lysostaphin with the antibiotics” value (SA5 (ATCC 49521); lysostaphin 0.0123 units/ml with Nafcillin or Oxacillin, 5 to 22 hours) was “acted synergistically”, the “% T” value (SA5 (ATCC 49521); lysostaphin 0.0123 units/ml without antibiotic, 5 hours, FIG. 8) was 97.0 % T and the “% T” value (SA5 (ATCC 49521); lysostaphin 0.0123 units/ml without antibiotic, 5 hours, FIG. 11) was 98.0 % T. The “% T” value (SA5 (ATCC 49521); lysostaphin 0.0123 units/ml without antibiotic, 22 hours, FIG. 8) was 75.4 % T, the “% T” value (SA5 (ATCC 49521); lysostaphin 0.0123 units/ml without antibiotic, 22 hours, FIG. 11) was 60.2 % T and the “% T” value (SA5 (ATCC 49521); lysostaphin 0.0123 units/ml, within 5 hours) was over 95 % T. For the same molecule, the “% T” value (SA5 (ATCC 49521); lysostaphin at concentrations higher than 0.0123 units/ml, at 5 (not shown)) was over 95% and the “% T” value (SA5 (ATCC 49521); most concentrations of lysostaphin, without antibiotics, after 22 hours) was “below 70%”.
In the case of “natural lysostaphin: natural lysostaphin from S. staphylolyticus (Sigma-Aldrich)”, the “change in % T” value (SA5; SA5 at a dilution of 1:2 vs neat SA5 (FIG. 5)) was “greater change”, the “change in % T / killing” value (SA5) was “increased only slightly” and the “Ending % T” value ([1]; 20 μg/ml, tube 5) was 95.0 % T. For the same molecule, the “Ending % T” value ([1]; 200 μg/ml, tube 4) was 94.6 % T.
In the case of “recombinant lysostaphin: lysostaphin from simulans expressed as recombinant in E. coli (Sigma-Aldrich)”, the “change in % T / killing” value (SA5) was “remained strong”, the “binding of mouse serum antibodies to the coated lysostaphin” value [2] was “markedly higher binding” and the “binding of mouse serum antibodies to the coated lysostaphin” value ([2]; listed as simulans lysostaphin) was “stronger”. For the same molecule, the “activity relative to natural lysostaphin” value (S. aureus cells [3]) was 6-7 fold, the enzymatic activity (S. aureus cells [4]) was “greater than 3,000 units per mg” and the “Ending % T” value ([1]; 220 μg/ml, tube 3, increase in % T indicates killing) was 94.0 % T.
